Key:
Assay type in all cases: cell-based, mouse
[1] = tested on: α7 integrin (LacZ reporter in α7βgal+/− myoblasts); test: Myoblast α7+/LacZ integrin FDG assay (Burkin assay in myoblasts, 96-well); details: α7+/LacZ myoblasts, 96-well
[2] = tested on: α7 integrin (LacZ reporter in α7+/LacZ myotubes); test: Myotube α7 integrin FDG assay (Burkin assay in myotubes, 96-well); details: myotubes
[3] = tested on: β-galactosidase in CMV-LacZ C2C12 myotubes; test: CMV-LacZ secondary screen in C2C12 myotubes (β-Gal stabilizing assay); details: C2C12 CMV-LacZ myotubes, fold relative to DMSO
Method in brief: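 β-Gal level was the read-out, measured in a clonal C2C12 line expressing LacZ from a CMV promoter. Dose-response curves used six concentrations, 0.5 μM up to 40 μM, with duplicate points.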

SMILES | Burkin Assay in Myoblasts, signal relative to DMSO ([1]; 0.5 uM) | Burkin Assay in Myoblasts, signal relative to DMSO ([1]; 1 uM) | Burkin Assay in Myoblasts, signal relative to DMSO ([1]; 5 uM) | Burkin Assay in Myoblasts, signal relative to DMSO ([1]; 10 uM) | Burkin Assay in Myoblasts, signal relative to DMSO ([1]; 20 uM) | Burkin Assay in Myoblasts, signal relative to DMSO ([1]; 40 uM) | Burkin Assay in Myotubes, α7 integrin LacZ reporter signal relative to DMSO ([2]; 0.5 uM) | Burkin Assay in Myotubes, α7 integrin LacZ reporter signal relative to DMSO ([2]; 1 uM) | Burkin Assay in Myotubes, α7 integrin LacZ reporter signal relative to DMSO ([2]; 5 uM) | Burkin Assay in Myotubes, α7 integrin LacZ reporter signal relative to DMSO ([2]; 10 uM) | Burkin Assay in Myotubes, α7 integrin LacZ reporter signal relative to DMSO ([2]; 20 uM) | Burkin Assay in Myotubes, α7 integrin LacZ reporter signal relative to DMSO ([2]; 40 uM) | CMV-LACZ in Myotubes, signal relative to DMSO ([3]; 5 uM) | CMV-LACZ in Myotubes, signal relative to DMSO ([3]; 10 uM) | CMV-LACZ in Myotubes, signal relative to DMSO ([3]; 20 uM) | CMV-LACZ in Myotubes, signal relative to DMSO ([3]; 40 uM) | also measured
COc1ccc(CCNC(=O)c2nn(C)c3c2CS(=O)(=O)c2ccccc2-3)cc1OC [MLS001117140-01] |  |  |  |  |  |  |  |  |  |  |  |  |  |  |  |  | fold induction at 0.5 µM ([1]; Mus musculus, Myoblast, 48 h, 0.5 uM, read-out: Burkin Assay in Myoblasts, signal relative to DMSO): 1.03; fold induction at 1 µM ([1]; Mus musculus, Myoblast, 48 h, 1 uM, read-out: Burkin Assay in Myoblasts, signal relative to DMSO): 1.07; fold induction at 5 µM ([1]; Mus musculus, Myoblast, 48 h, 5 uM, read-out: Burkin Assay in Myoblasts, signal relative to DMSO): 0.909; fold induction at 10 µM ([1]; Mus musculus, Myoblast, 48 h, 10 uM, read-out: Burkin Assay in Myoblasts, signal relative to DMSO): 0.901; fold induction at 20 µM ([1]; Mus musculus, Myoblast, 48 h, 20 uM, read-out: Burkin Assay in Myoblasts, signal relative to DMSO): 0.922; fold induction at 40 µM ([1]; Mus musculus, Myoblast, 48 h, 40 uM, read-out: Burkin Assay in Myoblasts, signal relative to DMSO): 0.942; fold induction at 0.5 µM ([2]; Mus musculus, Myotube, 0.5 uM, read-out: Burkin Assay in Myotubes, α7 integrin LacZ reporter signal relative to DMSO): 0.932; fold induction at 1 µM ([2]; Mus musculus, Myotube, 1 uM, read-out: Burkin Assay in Myotubes, α7 integrin LacZ reporter signal relative to DMSO): 1.12; fold induction at 5 µM ([2]; Mus musculus, Myotube, 5 uM, read-out: Burkin Assay in Myotubes, α7 integrin LacZ reporter signal relative to DMSO): 1.09; fold induction at 10 µM ([2]; Mus musculus, Myotube, 10 uM, read-out: Burkin Assay in Myotubes, α7 integrin LacZ reporter signal relative to DMSO): 1.37; fold induction at 20 µM ([2]; Mus musculus, Myotube, 20 uM, read-out: Burkin Assay in Myotubes, α7 integrin LacZ reporter signal relative to DMSO): 1.09; fold induction at 40 µM ([2]; Mus musculus, Myotube, 40 uM, read-out: Burkin Assay in Myotubes, α7 integrin LacZ reporter signal relative to DMSO): 1.06; fold induction at 5 µM ([3]; Mus musculus, C2C12, read-out: CMV-LACZ in Myotubes, signal relative to DMSO, 5 uM): 0.951; fold induction at 10 µM ([3]; Mus musculus, C2C12, read-out: CMV-LACZ in Myotubes, signal relative to DMSO, 10 uM): 1.12; fold induction at 20 µM ([3]; Mus musculus, C2C12, read-out: CMV-LACZ in Myotubes, signal relative to DMSO, 20 uM): 1.38; fold induction at 40 µM ([3]; Mus musculus, C2C12, read-out: CMV-LACZ in Myotubes, signal relative to DMSO, 40 uM): 1.17
Cc1cccn2c(=O)c3cc(C(=O)NC4CCCCC4)n(C)c3nc12 [MLS001117351-01] | 1.103 | 1.105 | 0.7718 | 0.7445 | 0.7137 | 0.4323 | 1.025 | 0.9924 | 0.8315 | 0.9463 | 0.7669 | 0.6986 | 1.016 | 1.088 | 1.1481 | 0.8952 | 
COc1ccc(C)cc1NC(=O)c1ccc2c(O)c(S(=O)(=O)c3ccccc3)c(=O)[nH]c2c1 [MLS001122718-01] | 1.1056 | 1.041 | 1.033 | 0.9092 | 0.9923 | 0.9332 | 1.011 | 0.9435 | 1.069 | 1.106 | 1.089 | 0.9804 | 0.8862 | 0.9662 | 0.9567 | 0.89 | 
COc1cc(NC(=O)CN(C)S(=O)(=O)c2ccc3c(c2)CC(C)N3C(C)=O)cc(OC)c1OC (stereo not shown) [MLS001122792-01] |  |  |  |  |  |  |  |  |  |  |  |  | 0.8137 | 0.9675 | 0.9969 | 0.7254 | Burkin Assay in Myoblasts, value relative to DMSO ([1]; 0.5 uM): 0.9702; Burkin Assay in Myoblasts, value relative to DMSO ([1]; 1 uM): 0.8787; Burkin Assay in Myoblasts, value relative to DMSO ([1]; 5 uM): 0.913; Burkin Assay in Myoblasts, value relative to DMSO ([1]; 10 uM): 0.8643; Burkin Assay in Myoblasts, value relative to DMSO ([1]; 20 uM): 0.9989; Burkin Assay in Myoblasts, value relative to DMSO ([1]; 40 uM): 0.8058; Burkin Assay in Myotubes (signal relative to DMSO) ([2]; 0.5 uM): 1.192; Burkin Assay in Myotubes (signal relative to DMSO) ([2]; 1 uM): 1.032; Burkin Assay in Myotubes (signal relative to DMSO) ([2]; 5 uM): 1.102; Burkin Assay in Myotubes (signal relative to DMSO) ([2]; 10 uM): 0.6414; Burkin Assay in Myotubes (signal relative to DMSO) ([2]; 20 uM): 1.068; Burkin Assay in Myotubes (signal relative to DMSO) ([2]; 40 uM): 0.8522

— patent US9980943B2, “Methods of treating muscular dystrophy” (BOARD OF REGENTS OF THE NEVADA SYSTEM OF HIGHER EDUCATION, …, priority 2013, dated 2018)
